Our source for the EC50 and CC50 values is patent publication US11634425B2, “Pharmaceutical compounds” (priority 2019, dated 2023).

Structures are written as SMILES.

One data set concerns RSV A2. The experiment in a line: RSV plaque reduction assay. The data set is classed as cell-based, respiratory syncytial virus (RSV). To be noted: human respiratory syncytial virus, HepG2, Hep-G2 cells, mean of at least two experiments. Here is the method:
(§1) Compounds were subjected to RSV plaque reduction assays according to the following protocol. Plaque EC50 and cell toxicity CC50 values are a mean of at least two experiments and figures are rounded to whole units.
Hep-G2 cells (ECACC, 85011430) were passaged in flasks and seeded in 24-well plates in DMEM containing antibiotics and supplemented with 10% FBS. During inoculation and subsequent incubation, cells were cultured in DMEM containing 2% FBS. 100 plaque forming unit/well of RSV (RSV A2 ECACC, 0709161v) was mixed with eight serial dilutions of compound. Subsequently, 100 μL of the virus/compound mixtures was added to confluent Hep-G2 cell monolayers. The cells and virus/compound mixtures were incubated at 37° C. in a humidified 5% CO2 incubator for 2 h prior to removal of the inoculum and addition of 1 mL of overlay (DMEM containing 2% FBS and 0.8% CMC) containing compound dilutions. The cells and were incubated at 37° C. in a humidified 5% CO2 incubator for 2 days.
Cells were washed with PBS before adding 75/25% […] EtOH/MeOH, for 3 min. Fixative was removed and plates were washed with PBS. A pre-titrated amount of the primary antibody was added in 200 μL PBS/2% milk powder, and plates incubated for 90 min at 37° C. The plates were washed 3 times with PBS/0.05% Tween20 before addition of rabbit anti-goat horse radish peroxidase in 200 μL PBS/2% milk powder, and incubated for 1 h at 37° C. Following three wash steps with PBS/0.05% Tween20, 200 μL ready-to-use TrueBlue was added and plates were incubated at rt for 10-15 min before washing with water. After removal of water, plates were air-dried in the dark.
(§2) Plates were scanned and analysed using the Immunospot S6 Macro analyser, which is equipped with BioSpot analysis software for counting immunostained plaques (virospots). Plaque counts were used to calculate % c infection relative to the mean of the plaque count in the virus control wells for RSV. The EC50 value was calculated as 50% reduction in signal, respectively, by interpolation of inhibition curves fitted with a 4-parameter nonlinear regression with a variable slope in Dotmatics. Plaque EC50 and cell toxicity CC50 values are a mean of at least two experiments and figures are rounded to whole units.

A short description of a further data set: Cell cytotoxicity (CC50). To be noted: human; mean of at least two experiments. The data set is classed as cell-based.
Excerpt: as §1, §2

For the compound `CC(C)(O)Cc1ccc(-c2nn3cccnc3c2C(=O)N[C@H]2N=C(c3ccccc3)c3cccc(F)c3NC2=O)cn1` [Example 77, 2-[6-(2-Hydroxy-2-methylpropyl)pyridin-3-yl]-N-[(3S)-9-fluoro-2-oxo-5-phenyl-1,3-dihydro-1,4-benzodiazepin-3-yl]pyrazolo[1,5-a]pyrimidine-3-carboxamide], the concentration for a half-maximal effect (EC50) (commonly the concentration needed to bring the measured effect to its halfway point) in the data set with RSV A2 was determined as 104 nM. Further, the CC50 (as a rule, the concentration giving 50% cytotoxicity) in the data set “Cell cytotoxicity (CC50)” was more than 25000 nM.

In turn, `O=C(N[C@H]1N=C(c2ccccc2)c2cccc(F)c2NC1=O)c1c(-c2ccccc2F)nc2ccc(N3CCOCC3)nn12` [Example 79, N-[(3S)-9-Fluoro-2-oxo-5-phenyl-1,3-dihydro-1,4-benzodiazepin-3-yl]-2-(2-fluorophenyl)-6-morpholin-4-ylimidazo[1,2-b]pyridazine-3-carboxamide] registered a 50% effective concentration (EC50) in the data set with RSV A2 of 26 nM. The compound also displayed a cytotoxic concentration (CC50) in “Cell cytotoxicity (CC50)” of more than 25000 nM.

`O=C(N[C@H]1N=C(c2ccccc2)c2cccc(F)c2NC1=O)c1c(-c2ccccc2)nc2ccc(N3C[C@H]4C[C@@H]3CO4)nn12` [Example 82, N-[(3S)-9-fluoro-2-oxo-5-phenyl-1,3-dihydro-1,4-benzodiazepin-3-yl]-6-[(1R,4R)-2-oxa-5-azabicyclo[2.2.1]heptan-5-yl]-2-phenylimidazo[1,2-b]pyridazine-3-carboxamide]: in the data set on RSV A2, the 50% effective concentration (EC50) was 81 nM. In “Cell cytotoxicity (CC50)”, this compound registered a CC50 of more than 25000 nM.

In the data set with RSV A2, `O=C(N[C@H]1N=C(c2ccccc2)c2cccc(F)c2NC1=O)c1c(-c2ccccc2)nc2ccc(N3CCOCC3)nn12` [Example 83, N-[(3S)-9-fluoro-2-oxo-5-phenyl-1,3-dihydro-1,4-benzodiazepin-3-yl]-6-morpholin-4-yl-2-phenylimidazo[1,2-b]pyridazine-3-carboxamide] yielded an EC50 of 118 nM. Further, in “Cell cytotoxicity (CC50)”, the CC50 was more than 25000 nM.

The compound `CN1C[C@H]2C[C@@H]1CN2c1ccn2nc(-c3ccccc3F)c(C(=O)N[C@H]3N=C(c4ccccc4)c4cccc(F)c4NC3=O)c2n1` [Example 84, N-[(3S)-9-fluoro-2-oxo-5-phenyl-1,3-dihydro-1,4-benzodiazepin-3-yl]-2-(2-fluorophenyl)[(1R,4R)-5-methyl-2,5-diazabicyclo[2.2.1]heptan-2-yl]pyrazolo[1,5-a]pyrimidine-3-carboxamide] displayed a half-maximal effective concentration (EC50) in the data set on RSV A2 of 95 nM. In the data set “Cell cytotoxicity (CC50)”, this compound showed a CC50 of 16300 nM.

Turning to `COc1nc(C)ccc1-c1nn2cccnc2c1C(=O)N[C@H]1N=C(c2ccccc2)c2ccccc2NC1=O` [Example 86, 2-(2-Methoxy-6-methylpyridin-3-yl)-N-[(3S)-2-oxo-5-phenyl-1,3-dihydro-1,4-benzodiazepin-3-yl]pyrazolo[1,5-a]pyrimidine-3-carboxamide], the EC50 in the data set on RSV A2 amounted to 119 nM. Further, the CC50 in “Cell cytotoxicity (CC50)” was more than 25000 nM.

Turning to `Cc1ccc2nc(-c3ccc(F)cc3F)c(C(=O)N[C@H]3N=C(c4ccccc4)c4ccccc4NC3=O)n2n1` [Example 90, 2-(2,4-Difluorophenyl)-6-methyl-N-[(3S)-2-oxo-5-phenyl-1,3-dihydro-1,4-benzodiazepin-3-yl]imidazo[1,2-b]pyridazine-3-carboxamide], the EC50 in the data set with RSV A2 was determined as 8 nM. Besides, the 50% cytotoxic concentration (CC50) in “Cell cytotoxicity (CC50)” was more than 25000 nM.

`Cc1ccc2nc(-c3ccccc3)c(C(=O)N[C@H]3N=C(c4ccccc4)c4ccccc4NC3=O)n2n1` [Example 92, 6-Methyl-N-[(3S)-2-oxo-5-phenyl-1,3-dihydro-1,4-benzodiazepin-3-yl]-2-phenylimidazo[1,2-b]pyridazine-3-carboxamide] had an EC50 in the data set with RSV A2 of 48 nM. Further, the CC50 in “Cell cytotoxicity (CC50)” is more than 25000 nM.

For `O=C(N[C@H]1N=C(c2ccccc2)c2cccc(F)c2NC1=O)c1c(-c2ccccc2F)nc2ccc(N3CCC3)nn12` [Example 94, 6-(Azetidin-1-yl)-N-[(3S)-9-fluoro-2-oxo-5-phenyl-1,3-dihydro-1,4-benzodiazepin-3-yl]-2-(2-fluorophenyl)imidazo[1,2-b]pyridazine-3-carboxamide], the concentration for a half-maximal effect (EC50) in the data set with RSV A2 came out at 50 nM. In “Cell cytotoxicity (CC50)”, the cytotoxic concentration (CC50) is more than 25000 nM.

As for `Cc1cc(-c2nc3ccc(C)nn3c2C(=O)N[C@H]2N=C(c3ccccc3)c3ccccc3NC2=O)ccn1` [Example 97, 6-Methyl-2-(2-methylpyridin-4-yl)-N-[(3S)-2-oxo-5-phenyl-1,3-dihydro-1,4-benzodiazepin-3-yl]imidazo[1,2-b]pyridazine-3-carboxamide], the concentration for a half-maximal effect (EC50) in the data set with RSV A2 came to 49 nM. Besides, the CC50 in the data set “Cell cytotoxicity (CC50)” is more than 25000 nM.

Turning to `Cc1cc(-c2nc3ccc(C)nn3c2C(=O)N[C@H]2N=C(c3ccccc3)c3cccc(F)c3NC2=O)ccn1` [Example 98, N-[(3S)-9-fluoro-2-oxo-5-phenyl-1,3-dihydro-1,4-benzodiazepin-3-yl]-6-methyl-2-(2-methylpyridin-4-yl)imidazo[1,2-b]pyridazine-3-carboxamide], it took 48 nM to reach a half-maximal effect in the data set on RSV A2 (EC50). The same compound returned a cytotoxic concentration (CC50) in “Cell cytotoxicity (CC50)” of more than 25000 nM.

In the case of `Cc1ccc2nc(-c3ccncc3F)c(C(=O)N[C@H]3N=C(c4ccccc4)c4ccccc4NC3=O)n2n1` [Example 99, 2-(3-Fluoropyridin-4-yl)-6-methyl-N-[(3S)-2-oxo-5-phenyl-1,3-dihydro-1,4-benzodiazepin-3-yl]imidazo[1,2-b]pyridazine-3-carboxamide], the midpoint of the response in the data set with RSV A2, the EC50, lay at 51 nM. Moreover, the CC50 in the data set “Cell cytotoxicity (CC50)” is more than 25000 nM.

With `Cc1ccc2nc(-c3cncc(F)c3)c(C(=O)N[C@H]3N=C(c4ccccc4)c4ccccc4NC3=O)n2n1` [Example 101, 2-(5-Fluoropyridin-3-yl)-6-methyl-N-[(3S)-2-oxo-5-phenyl-1,3-dihydro-1,4-benzodiazepin-3-yl]imidazo[1,2-b]pyridazine-3-carboxamide], the EC50 with RSV A2 was determined as 81 nM. In “Cell cytotoxicity (CC50)”, the CC50 was more than 25000 nM.

In the case of `Cc1ccc2nc(-c3cncc(F)c3)c(C(=O)N[C@H]3N=C(c4ccccc4)c4cccc(F)c4NC3=O)n2n1` [Example 102, N-[(3S)-9-fluoro-2-oxo-5-phenyl-1,3-dihydro-1,4-benzodiazepin-3-yl]-2-(5-fluoropyridin-3-yl)-6-methylimidazo[1,2-b]pyridazine-3-carboxamide], the concentration giving a half-maximal response (EC50) in the data set on RSV A2 was determined as 105 nM. In “Cell cytotoxicity (CC50)”, the CC50 is more than 19200 nM.

In the data set on RSV A2, `Cc1cncc(-c2nc3ccc(C)nn3c2C(=O)N[C@H]2N=C(c3ccccc3)c3cccc(F)c3NC2=O)c1` [Example 103, N-[(3S)-9-fluoro-2-oxo-5-phenyl-1,3-dihydro-1,4-benzodiazepin-3-yl]-6-methyl-2-(5-methylpyridin-3-yl)imidazo[1,2-b]pyridazine-3-carboxamide] displayed a half-maximal effective concentration (EC50) of 82 nM. This compound also yielded a CC50 in “Cell cytotoxicity (CC50)” of more than 25000 nM.

In the data set on RSV A2, `Cc1ccc2nc(-c3ccc(N4CCOCC4)nc3)c(C(=O)N[C@H]3N=C(c4ccccc4)c4ccccc4NC3=O)n2n1` [Example 104, 6-Methyl-2-(6-morpholin-4-ylpyridin-3-yl)-N-[(3S)-2-oxo-5-phenyl-1,3-dihydro-1,4-benzodiazepin-3-yl]imidazo[1,2-b]pyridazine-3-carboxamide] came in with a concentration for a half-maximal effect (EC50) of 29 nM. The CC50 in “Cell cytotoxicity (CC50)” is more than 25000 nM.

With `COCCOc1ccc2nc(-c3ccccc3F)c(C(=O)N[C@H]3N=C(c4ccccc4)c4cccc(F)c4NC3=O)n2n1` [Example 110, N-[(3S)-9-Fluoro-2-oxo-5-phenyl-1,3-dihydro-1,4-benzodiazepin-3-yl]-2-(2-fluorophenyl)-6-(2-methoxyethoxy)imidazo[1,2-b]pyridazine-3-carboxamide], the concentration for a half-maximal effect (EC50) in the data set on RSV A2 is 73 nM. The CC50 in “Cell cytotoxicity (CC50)” was more than 25000 nM.

Take `COc1ccc2nc(-c3ccccc3)c(C(=O)N[C@H]3N=C(c4ccccc4)c4ccccc4NC3=O)n2n1` [Example 111, 6-Methoxy-N-[(3S)-2-oxo-5-phenyl-1,3-dihydro-1,4-benzodiazepin-3-yl]-2-phenylimidazo[1,2-b]pyridazine-3-carboxamide]: the 50% effective concentration (EC50) in the data set with RSV A2 is 48 nM. The same compound showed a CC50 in “Cell cytotoxicity (CC50)” of more than 25000 nM.

In the case of `[2H]C([2H])([2H])Oc1ccc2nc(-c3ccccc3)c(C(=O)N[C@H]3N=C(c4ccccc4)c4ccccc4NC3=O)n2n1` [Example 112, N-[(3S)-2-oxo-5-phenyl-1,3-dihydro-1,4-benzodiazepin-3-yl]-2-phenyl-6-(trideuteriomethoxy)imidazo[1,2-b]pyridazine-3-carboxamide], it took 50 nM to reach a half-maximal effect in the data set on RSV A2 (EC50). Also, the 50% cytotoxic concentration (CC50) in “Cell cytotoxicity (CC50)” is more than 25000 nM.

In the data set with RSV A2, `CCc1ccc(-c2nc3ccc(Cl)nn3c2C(=O)N[C@H]2N=C(c3ccccc3)c3cccc(F)c3NC2=O)cn1` [Example 117, 6-Chloro-2-(6-ethylpyridin-3-yl)-N-[(3S)-9-fluoro-2-oxo-5-phenyl-1,3-dihydro-1,4-benzodiazepin-3-yl]imidazo[1,2-b]pyridazine-3-carboxamide] gave a concentration giving a half-maximal response (EC50) of 27 nM. For the same compound, the CC50 in the data set “Cell cytotoxicity (CC50)” was more than 25000 nM.

Compound `COc1ccc2nc(-c3ccc(C)cn3)c(C(=O)N[C@H]3N=C(c4ccccc4)c4cccc(F)c4NC3=O)n2n1` [Example 120, N-[(3S)-9-fluoro-2-oxo-5-phenyl-1,3-dihydro-1,4-benzodiazepin-3-yl]-6-methoxy-2-(6-methyipyridin-3-yl)imidazo[1,2-b]pyridazine-3-carboxamide] came in with an EC50 with RSV A2 of 101 nM. In “Cell cytotoxicity (CC50)”, this compound displayed a CC50 of more than 25000 nM.
